Laboratory results from patent publication US20060100245A1, “Substituted biphenyl-4-carboxylic acid arylamide analogues” (Neurogen Corporation, priority 2002, published 2006).

Each compound was assayed against T1, human capsaicin receptor (VR1) (Homo sapiens, UniProt Q8NER1) (assay: Capsaicin receptor binding assay ([3H]RTX competition)). Details: not given.
T1 construct: transfected with the pBK-CMV expression construct encoding the full length human capsaicin receptor; expressed in transfected cells
T1 sequence (Q8NER1 whole entry): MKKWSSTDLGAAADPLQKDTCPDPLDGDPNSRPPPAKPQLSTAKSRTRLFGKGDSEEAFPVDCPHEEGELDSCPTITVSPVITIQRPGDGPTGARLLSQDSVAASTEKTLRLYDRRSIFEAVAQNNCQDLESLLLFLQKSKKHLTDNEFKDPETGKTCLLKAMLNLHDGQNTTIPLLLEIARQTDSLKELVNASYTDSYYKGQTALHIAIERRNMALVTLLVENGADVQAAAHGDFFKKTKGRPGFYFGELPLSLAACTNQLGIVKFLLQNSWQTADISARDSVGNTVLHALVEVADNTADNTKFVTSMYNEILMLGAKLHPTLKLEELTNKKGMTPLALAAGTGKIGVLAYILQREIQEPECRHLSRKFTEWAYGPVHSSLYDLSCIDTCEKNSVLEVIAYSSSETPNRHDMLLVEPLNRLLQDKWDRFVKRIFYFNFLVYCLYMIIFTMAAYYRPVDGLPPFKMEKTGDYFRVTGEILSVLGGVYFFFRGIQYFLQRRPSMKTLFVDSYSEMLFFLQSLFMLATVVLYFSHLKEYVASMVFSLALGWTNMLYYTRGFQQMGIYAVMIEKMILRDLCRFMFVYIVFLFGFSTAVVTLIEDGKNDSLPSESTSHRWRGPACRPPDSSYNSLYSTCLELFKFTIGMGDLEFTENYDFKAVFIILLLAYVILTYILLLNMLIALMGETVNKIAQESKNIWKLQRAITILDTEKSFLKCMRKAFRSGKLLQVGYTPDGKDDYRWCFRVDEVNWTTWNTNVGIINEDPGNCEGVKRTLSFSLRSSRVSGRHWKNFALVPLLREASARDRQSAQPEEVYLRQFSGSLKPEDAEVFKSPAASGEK
Summary of the method: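 Membranes from HEK293 cells stably expressing full-length human VR1; competition against 60 pM [3H]RTX, 60 min at 37 °C in HEPES/sucrose buffer pH 7.4 with 0.25 mg/ml BSA. Non-specific binding defined with 1 μM unlabelled RTX; alpha1-acid glycoprotein added after termination on ice.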
`CCC1(c2ccc(NC(=O)c3ccc(-c4ncccc4F)cc3)cc2)CCC(=O)NC1=O` (stereo not drawn) [Compound 458, N-[4-(3-Ethyl-2,6-dioxo-piperidin-3-yl)-phenyl]-4-(3-fluoro-pyridin-2-yl)-benzamide] was tested, and the Ki was under 1000 nM.

Same assay, conditions: read-out: Ki
In the case of `CC(C)(C)c1ccc(NC(=O)c2ccc(-c3ncccc3C#N)cc2)cc1` [Compound 405, N-(4-tert-Butyl-phenyl)-4-(3-cyano-pyridin-2-yl)-benzamide], the Ki is reported as under 1000 nM. With `Cc1cccc(-c2ccc(C(=O)Nc3ccc(C(C)(C)C)cc3)cn2)c1` [Compound 452, N-(4-tert-Butyl-phenyl)-6-m-tolyl-nicotinamide] the Ki was under 1000 nM. Work on `CC(C)(C)c1ccc(NC(=O)c2ccc(-c3ncccc3C(F)(F)F)cc2O)cc1` [Compound 394, N-(4-tert-Butyl-phenyl)-2-hydroxy-4-(3-trifluoromethyl-pyridin-2-yl)-benzamide] yielded a Ki of under 1000 nM. Compound `CS(=O)(=O)N(c1cccnc1-c1ccc(C(=O)Nc2ccc(C(F)(F)F)cn2)cc1)S(C)(=O)=O` [Compound 457, N-(5-Trifluoromethyl-pyridin-2-yl)-4-[3-(N,N-dimethanesulfonyl)amino-pyndin-2-yl]-benzamide] has a Ki of under 1000 nM. With `CC(C)(C)c1ccc(NC(=O)c2ccc(-c3ccncc3N)cc2)cc1` [Compound 24, 4-(3-Amino-pyridin-4-yl)-N-(4-tert-butyl-phenyl)-benzamide] the Ki was under 1000 nM. `Cc1ccc(NC(=O)c2ccc(-c3ccccc3)nc2)cc1C` [Compound 249, N-(3,4-Dimethyl-phenyl)-6-phenyl-nicotinamide] gave a Ki of under 1000 nM. `Cc1cc(NC(=O)c2ccc(-c3ncccc3F)cc2)ccc1C(C)C` [Compound 33, 4-(3-Fluoro-pyridin-2-yl)-N-(4-isopropyl-3-methyl-phenyl)-benzamide] gave a Ki of under 1000 nM. For `CC(C)(C)c1ccc(NC(=O)c2ccc(-c3cccc(F)c3)nc2)cc1` [Compound 448, N-(4-tert-Butyl-phenyl)-6-(3-fluoro-phenyl)-nicotinamide], the Ki was under 1000 nM. In the case of `CC(C)(C)c1ccc(NC(=O)c2ccc(-c3ccccc3)nc2)cc1` [Compound 454, N-(4-tert-Butyl-phenyl)-6-phenyl-nicotinamide], the Ki is reported as under 1000 nM. Compound `Cc1ccccc1-c1ccc(C(=O)Nc2ccc(Oc3ccc(Cl)cc3)cc2)cn1` [Compound 459, N-[4-(4-Chloro-phenoxy)-phenyl]-6-o-tolyl-nicotinamide] has a Ki of under 1000 nM. With `Cc1cccc(C)c1-c1ccc(C(=O)Nc2ccc(C(C)(C)C)cc2)cn1` [Compound 439, N-(4-tert-Butyl-phenyl)-6-(2,6-dimethyl-phenyl)-nicotinamide] the Ki was under 1000 nM. `CN(c1cccnc1-c1ccc(C(=O)Nc2ccc(C(C)(C)C)cc2)cc1)S(C)(=O)=O` [Compound 425, N-(4-tert-Butyl-phenyl)-4-[3-(methanesulfonyl-methyl-amino)-pyridin-2-yl]-benzamide] gave a Ki of under 1000 nM. `CCCCS(=O)(=O)Nc1cccnc1-c1ccc(C(=O)Nc2ccc(C(C)(C)C)cc2)cc1` [Compound 37, 4-[3-(Butane-1-sulfonylamino)-pyridin-2-yl]-N-(4-eert-butyl-phenyl)-benzamide] showed a Ki of under 1000 nM. `O=C(Nc1ccc(C(F)(F)F)cc1)c1ccc(-c2ncccc2C(F)(F)F)cc1O` [Compound 16, 2-Hydroxy-N-(4-trifluoromethyl-phenyl)-4-(3-trifluoromethyl-pyridin-2-yl)-benzamide] gave a Ki of under 1000 nM. `CCCN1CCCCC1c1ccc(C(=O)Nc2ccc(C(C)(C)C)cc2)cc1` (stereo not drawn) [Compound 399, N-(4-tert-Butyl-phenyl)-4-(1-propyl-piperidin-2-yl)-benzamide] gave a Ki of under 1000 nM. In the case of `CC(C)c1ccc(NC(=O)c2ccc(-c3ccccc3)nc2)cc1` [Compound 385, N-(4-Isopropyl-phenyl)-6-phenyl-nicotinamide], the Ki is reported as under 1000 nM. `CC(C)(C)c1cccc(NC(=O)c2ccc(-c3ccccc3F)nc2)c1` [Compound 288, N-(3-tert-Butyl-phenyl)-6-(2-fluoro-phenyl)-nicotinamide] showed a Ki of under 1000 nM. In the case of `CC(C)(C)c1ccc(NC(=O)c2ccc(-c3ncc(Cl)cc3Cl)cc2)cc1` [Compound 400, N-(4-tert-Butyl-phenyl)-4-(3,5-dichloro-pyridin-2-yl)-benzamide], the Ki is reported as under 1000 nM. In the case of `Cc1cc(C)cc(-c2ccc(C(=O)Nc3ccc(C)c(C)c3)cn2)c1` [Compound 237, N-(3,4-Dimethyl-phenyl)-6-(3,5-dimethyl-phenyl)-nicotinamide], the Ki is reported as under 1000 nM. In the case of `CC(C)(C)c1ccc(NC(=O)c2ccc(-c3cc(C(F)(F)F)ccn3)cc2)cc1` [Compound 422, N-(4-tert-Butyl-phenyl)-4-(4-trifluoromethyl-pyridin-2-yl)-benzamide], the Ki is reported as under 1000 nM. For `CC(C)c1cccc(-c2ccc(C(=O)Nc3ccc4c(c3)OCCO4)cn2)c1` [Compound 196, N-(2,3-Dihydro-benzo[1,4]dioxin-6-yl)-6-(3-isopropyl-phenyl)-nicotinamide], the Ki was under 1000 nM. Compound `O=C(Nc1ccc(C(F)(F)F)cc1)c1ccc(-c2ccccc2F)nc1` [Compound 92, 6-(2-Fluoro-phenyl)-N-(4-trifluoromethyl-phenyl)-nicotinamide] has a Ki of under 1000 nM. Compound `CCOc1cccc(-c2ccc(C(=O)Nc3ccc(C)c(C)c3)cn2)c1` [Compound 238, N-(3,4-Dimethyl-phenyl)-6-(3-ethoxyl-phenyl)-nicotinamide] has a Ki of under 1000 nM. In the case of `CC(C)(C)c1ccc(NC(=O)c2ccc(-c3ncccn3)cc2)cc1` [Compound 433, N-(4-tert-Butyl-phenyl)-4-pyrimidin-2-yl-benzamide], the Ki is reported as under 1000 nM. For `CC(C)(C)c1ccc(NC(=O)c2ccc(-c3ncccc3Cl)cc2)cc1` [Compound 404, N-(4-tert-Butyl-phenyl)-4-(3-chloro-pyridin-2-yl)-benzamide], the Ki was under 1000 nM. `CC(C)(C)c1ccc(NC(=O)c2ccc(-c3ncccc3N(S(C)(=O)=O)S(C)(=O)=O)cc2)cc1` [Compound 426, N-(4-tert-Butyl-phenyl)-4-[3-(N,N-dimethanesulfonyl)amino-pyridin-2-yl]-benzamide] was tested, and the Ki was under 1000 nM. In the case of `CC(C)(C)c1ccc(NC(=O)c2ccc(-c3ncccc3C(F)(F)F)cc2N)cc1` [Compound 12, 2-Amino-N-(4-tert-butyl-phenyl)-4-(3-trifluoromethyl-pyridin-2-yl)-benzamide], the Ki is reported as under 1000 nM. In the case of `CC(C)(C)c1ccc(NC(=O)c2ccc(-c3ccncc3N(S(C)(=O)=O)S(C)(=O)=O)cc2)cc1` [Compound 427, N-(4-tert-Butyl-phenyl)-4-[3-(N,N-dimethanesulfonyl)amino-pyridin-4-yl]-benzamide], the Ki is reported as under 1000 nM. `CN(C)Cc1cccnc1-c1ccc(C(=O)Nc2ccc(C(C)(C)C)cc2)cc1` [Compound 407, N-(4-tert-Butyl-phenyl)-4-(3-dimethylaminomethyl-pyridin-2-yl)-benzamide] showed a Ki of under 1000 nM. `CC(C)(C)c1ccc(NC(=O)c2ccc(-c3ncccc3C(F)(F)F)cc2[N+](=O)[O-])cc1` [Compound 395, N-(4-tert-Butyl-phenyl)-2-nitro-4-(3-trifluoromethyl-pyridin-2-yl)-benzamide] gave a Ki of under 1000 nM. With `CC(C)(C)c1ccc(NC(=O)c2ccc(-c3nccnc3Cl)cc2)cc1` [Compound 403, N-(4-tert-Butyl-phenyl)-4-(3-chloro-pyrazin-2-yl)-benzamide] the Ki was under 1000 nM. For `CS(=O)(=O)N(c1cccnc1-c1ccc(C(=O)Nc2ccc(C(F)(F)F)cc2)cc1)S(C)(=O)=O` [Compound 456, N-(4-Trifluoromethyl-phenyl)-4-[3-(N,N-dimethanesulfonyl)amino-pyridin-2-yl]-benzamide], the Ki was under 1000 nM.
